Assays:
GLUT1 [1] = target: T1, GLUT1 (Homo sapiens, UniProt P11166); conditions: substrates and inhibitors of GLUT1; cited from earlier work
T1 sequence (P11166 1-492): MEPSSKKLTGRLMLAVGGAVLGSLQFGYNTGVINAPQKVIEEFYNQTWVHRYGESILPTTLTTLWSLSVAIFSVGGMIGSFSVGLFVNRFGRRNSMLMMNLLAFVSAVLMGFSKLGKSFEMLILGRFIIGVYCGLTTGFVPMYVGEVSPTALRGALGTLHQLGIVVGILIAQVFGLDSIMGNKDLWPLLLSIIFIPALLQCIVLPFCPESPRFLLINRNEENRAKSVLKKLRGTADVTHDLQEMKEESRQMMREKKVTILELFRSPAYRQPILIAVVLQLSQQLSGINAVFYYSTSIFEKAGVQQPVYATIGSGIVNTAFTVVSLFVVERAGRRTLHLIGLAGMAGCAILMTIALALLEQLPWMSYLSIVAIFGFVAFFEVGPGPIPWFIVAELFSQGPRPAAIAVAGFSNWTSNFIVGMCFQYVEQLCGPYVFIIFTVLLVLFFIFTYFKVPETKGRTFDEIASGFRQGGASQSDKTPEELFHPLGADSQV

GLUT1 [2] = target: T1, GLUT1; test: Uptake of 3H-glucose by GLUT1 expressed in Xenopus oocytes; type: cell-based; parameters: expressed in transfected cells; host or cells: Xenopus oocytes (defolliculated), injected with in vitro transcribed GLUT1 cRNA; conditions: Xenopus oocytes injected with GLUT1 cRNA
Procedure: To assess transport function of a specific transporter protein, it can be desirable to clone the cDNA and express the protein in cells that have low endogenous transport activity. Human GLUT1 was cloned by PCR, fully sequenced, and subcloned into plasmids that can be used for expression in mammalian cells or Xenopus oocytes. […] For expression in Xenopus oocytes, in vitro GLUT1 cRNA was prepared and injected into defoliculated oocytes. […]

Compound | Reported Affinity for GLUT1 (GLUT1 [1]) [mM] | 3H-glucose uptake versus noninjected controls (GLUT1 [2])
O=C[C@H](O)[C@@H](O)[C@@H](O)[C@H](O)CO [Galactose] | 4 | 
O=C1O[C@H]([C@@H](O)CO)C(=O)C1=O [Dehydroascorbic Acid] | 0.8 | 
(S)-methoxy-a-methyl-2-napthalene acetic acid amido galacto pyranose | 1 | 
N[C@H]1C(O)O[C@H](CO)[C@@H](O)[C@@H]1O (stereo partly shown) [Glucosamine] | 9 | 
Fluorodeoxyglucose | 4 | 
O=C[C@H](O)[C@@H](O)[C@H](O)[C@H](O)CO [^3H-glucose] |  | higher levels
O=C(CCc1ccc(O)cc1)c1c(O)cc(O)cc1O [Phloretin] | 0.05 | 
